# Where two headings read alike, the source gives them in different places.
# How the values were obtained:
# PC-3M cells = test: Normalized mitotic index (histone H3 phospho-Serine-28), PC-3M; assay type: cell-based; settings: Homo sapiens, at 1 μM, normalized against vehicle-treated cells, read-out: Normalized mitotic index PC-3M
# Source text: (§1) The mitotic index for each agent was normalized against those obtained from vehicle-treated cells, and compared with the activity of paclitaxel, a known inducer of mitotic arrest.
# [1] = system: paclitaxel-resistant PC3-TR prostate cancer cells; test: Cyquant cell viability assay, PC3-TR; assay type: cell-based, human; settings: 72 hours
# Protocol: (§2) The cytotoxic effects of paclitaxel, fenbendazole, and albendazole were compared in paclitaxel-resistant PC3-TR and DU145-TR prostate cancer cells with their paclitaxel-sensitive counterparts, PC3 and DU145 cells. Cells were treated for 72 hours with vehicle, paclitaxel, fenbendazole or albendazole in various doses. Cell viability was measured using Cyquant assay, and percent control was calculated by dividing the fluorescent reading from drug-treated cells with those from vehicle-treated cells, indicating percentage of cell survival.
# DU145-TR cells [2] = test: Normalized mitotic index, DU145-TR; assay type: cell-based, human; settings: 100 nM
# PC3-TR cells [3] = test: Normalized mitotic index, PC3-TR; assay type: cell-based, human; settings: 100 nM
# PC3-TR cells [4] = test: % apoptotic cells, PC3-TR; assay type: cell-based, human; settings: 100 nM
# PC3 cells [5] = test: % apoptotic cells, PC3; assay type: cell-based, human; settings: 100 nM
# DU145-TR cells [6] = test: % apoptotic cells, DU145-TR; assay type: cell-based, human; settings: 100 nM
# PC3 cells [7] = test: Normalized mitotic index, PC3; assay type: cell-based, human; settings: 100 nM
# DU145 cells [8] = test: Normalized mitotic index, DU145; assay type: cell-based, human; settings: 100 nM
# AT6.1 cells = test: Normalized mitotic index (histone H3 phospho-Serine-28), AT6.1; assay type: cell-based; settings: Rattus norvegicus, at 1 μM; normalized against vehicle-treated cells; read-out: Normalized mitotic index AT6.1
# Source text: as §1
# [9] = system: AT6.1 Dunning rat prostate carcinoma; test: Survival in intravenous AT6.1 Dunning rat prostate carcinoma lung metastasis model; assay type: in vivo, nu/nu mice; settings: 10 mg/kg three times a week
# Protocol: Many anti-tumor drugs are tested only for their ability to prevent primary tumor growth or to prevent the dissemination of metastatic cells. To accomplish this, the drug is usually administered shortly after the primary tumor is established. […] The benzimidazoles described herein were evaluated in an experimental metastases model in the lungs of nude mice following tail-vein injection of Dunning rat AT6.1 prostate carcinoma. […] In order to achieve greater bioavailability, we first solubilized benzimidazoles in DNTC formulation and then diluted with saline prior to injection.
# Inbred male nu/nu mice age 6-8 weeks were obtained from Massachusetts General Hospital (Boston, Mass.). The mice were virus antibody free, age and weight matched for experimental use and fed with a balanced rodent diet ad libitum. AT6.1 Dunning rat prostate cells were maintained as described above. 1×10^4 log-phase cells were injected via tail vein in 0.1 mL Hanks solution. Vehicle or drug treatment was started on day 5 post inoculation and given three times a week (Monday, Wednesday and Friday) via intraperitoneal injection in 0.5 mL volume. Benzimidazole drugs were prepared in the combination carrier [DMSO (12.5%), NMP (37.5%), TWEEN®-80 (25%) and CrEL (25%)] and diluted in saline. Vehicle control was prepared by diluting the combination carrier with saline.
# During the course of treatment, the mice were monitored for toxicity by measuring body weight. […] Animals were euthanized with CO2 and tissues were collected for further analysis. The animals and experiments used in these studies were approved by the institutional animal care committee according to Children's Hospital Boston ARCH guidelines.
# To distinguish differences in survival between these groups, the percent increase in life span (ILS %), defined as the percent increase in the mean time to death of drug-treated animals over the corresponding time to death for vehicle-treated mice, was calculated.
# [10] = system: paclitaxel-resistant DU145-TR prostate cancer cells; test: Cyquant cell viability assay, DU145-TR; assay type: cell-based, human; settings: 72 hours
# Protocol: as §2
# [11] = Combination with paclitaxel, Cyquant cell growth inhibition, CompuSyn median-dose effect analysis; assay type: cell-based; settings: alone or in combination, read-out: Dose Tax
# Protocol: Cell growth inhibition assays were performed using Cyquant reagent as described above. Drug interactions were quantitated by median-dose effect analysis and combination index values as well as dose reduction index were derived using CompuSyn software (ComboSyn, Inc.), as described previously in the literature. CI values of <1, =1, and >1 indicate synergism, additivity and antagonism between the drugs, respectively.
# All benzimidazole drugs were prepared using the combination carrier and diluted with culture medium prior to treatment.
# DU145 cells [12] = test: % apoptotic cells, DU145; assay type: cell-based, human; settings: 100 nM
# PC-3MLN4 cells = test: Normalized mitotic index (histone H3 phospho-Serine-28), PC-3MLN4; assay type: cell-based; settings: Homo sapiens, at 1 μM; normalized against vehicle-treated cells; read-out: Normalized mitotic index PC-3MLN4
# Source text: as §1
# PC-3TxR cells = test: Subcutaneous PC-3TxR tumors in nude mice; assay type: in vivo; settings: 10 mg/kg three times a week for 3 weeks
# Protocol: PC-3TxR cells were inoculated subcutaneously in the flanks of the nude mice. When the tumors reached approximately 100 mm^3 in size, the mice were treated with vehicle, paclitaxel (10 mg/kg), fenbendazole (100 mg/kg) or albendazole (100 mg/kg) three times a week for 3 weeks. These benzimidazoles were prepared in DNTC and diluted with saline prior to injection.
# PC-3TxR cells were inoculated subcutaneously in the flanks of the nude mice. When the tumors reached approximately 100 mm3 in size, the mice were treated with vehicle, paclitaxel (10 mg/kg), fenbendazole (100 mg/kg) or albendazole (100 mg/kg) three times a week for 3 weeks. These benzimidazoles were prepared in DNTC and diluted with saline prior to injection.
smiles,measurement,setting,value
CC(=O)O[C@H]1C(=O)[C@@]2(C)[C@H]([C@H](OC(=O)c3ccccc3)[C@]3(O)C[C@H](OC(=O)[C@H](O)[C@@H](NC(=O)c4ccccc4)c4ccccc4)C(C)=C1C3(C)C)[C@]1(OC(C)=O)CO[C@@H]1C[C@@H]2O [Paclitaxel],fold induction at 1 µM,PC-3M cells,2.43
same,cytotoxic effect against PC3-TR (PC-3TxR),[1],refractory
same,cytotoxic effect against PC3-TR (PC-3TxR),[1]; listed as taxol,less effective
same,Normalized mitotic index (6 hours) DU145-TR,DU145-TR cells [2],0.86
same,Normalized mitotic index (6 hours) PC3-TR,PC3-TR cells [3],1.56
same,% Apoptotic cells (72 hours) PC3-TR,PC3-TR cells [4],8.9%
same,% Apoptotic cells (72 hours) PC3,PC3 cells [5],16.4%
same,% Apoptotic cells (72 hours) DU145-TR,DU145-TR cells [6],11.5%
same,Normalized mitotic index (6 hours) PC3,PC3 cells [7],1.32
same,Normalized mitotic index (6 hours) DU145,DU145 cells [8],3.52
same,fold induction at 1 µM,AT6.1 cells,2.1
same,percent increase in life span (ILS %),[9],30.2%
same,cytotoxic effect against DU145-TR (DU-145TxR),[10],refractory
same,cytotoxic effect against DU145-TR (DU-145TxR),[10]; listed as taxol,less effective
same,EC50,"[11]; Fa 0.50, listed as Tax",937 nM
same,EC50,[11]; Fa 0.50,936 nM
same,EC50,[11]; Fa 0.60,1392 nM
same,% Apoptotic cells (72 hours) DU145,DU145 cells [12],37.3%
same,fold induction at 1 µM,PC-3MLN4 cells,2.34
same,growth of PC-3TxR tumors compared to the vehicle treated group,PC-3TxR cells,significantly greater

# Reference: patent US20120064008A1, “COMPOSITIONS FOR THE TREATMENT OF METASTATIC CANCER AND METHODS OF USE THEREOF” (priority 2009, published 2012)
